By mass density is commonly meant mass per unit of volume.

Numbers after ± are expanded uncertainties.

Assay in one series: not given
The following applies: 293.15 K; 101.33 kPa; Liquid; Vibrating tube method.
As for `O` [water], the mass density is 998.5 ± 0.4 kg/m3.

As to `CO` [methanol], the mass density came out at 791.9 ± 0.4 kg/m3.

As for `CC(=O)CC(C)C` [4-methylpentan-2-one], the mass density was found to be 800.9 ± 1.6 kg/m3. On the same count and under the same terms, the result for `CCCC(C)O` (stereo unspecified) [pentan-2-ol] reads 810.1 ± 1.6 kg/m3. Same read-out and setting: the result for `CCn1cc[n+](C)c1.F[B-](F)(F)F` [1-ethyl-3-methylimidazolium tetrafluoroborate] reads 1283 ± 5.3 kg/m3.

A short description of another series: wn = mass fraction of the nth substance listed. The note with it: 293.15 K; 100 kPa; Liquid; Vibrating tube method; w1 = 0.7.
In the case of `O=[N+]([O-])O` [nitric acid] + O, the mass density stood at 1411.5 ± 2.9 kg/m3.
